Laboratory results as given in patent US20030150812A1, “Novel parallel throughput system” (priority 2001, published 2003).

Key:
α3β2 nicotinic receptor = α3β2 nicotinic receptor (Homo sapiens, UniProt P17787+P32297); conditions: Column A with α3β2, 24 cm, 50 nM injection, 10 mM Amm Acetate pH 7.4 and 1 nM dinitrobenzoic acid, 261 nm
Protocol: (§1) A parallel screen was run using two separate columns containing the different nicotinic receptors α3β2 and […] in the separate columns. […] The mobile phase contained 10 mM Amm Acetate at pH 7.4 and 1 nM Dinitrobenzoic acid. The columns were 24 cm in length.

α3β4 nicotinic receptor = α3β4 nicotinic receptor (Homo sapiens, UniProt P30926+P32297); conditions: Column B with α3β4, 24 cm, 50 nM injection, 10 mM Amm Acetate pH 7.4 and 1 nM dinitrobenzoic acid, 261 nm
Protocol: as §1

Sequence of α3β2 nicotinic receptor (P32297 32-505): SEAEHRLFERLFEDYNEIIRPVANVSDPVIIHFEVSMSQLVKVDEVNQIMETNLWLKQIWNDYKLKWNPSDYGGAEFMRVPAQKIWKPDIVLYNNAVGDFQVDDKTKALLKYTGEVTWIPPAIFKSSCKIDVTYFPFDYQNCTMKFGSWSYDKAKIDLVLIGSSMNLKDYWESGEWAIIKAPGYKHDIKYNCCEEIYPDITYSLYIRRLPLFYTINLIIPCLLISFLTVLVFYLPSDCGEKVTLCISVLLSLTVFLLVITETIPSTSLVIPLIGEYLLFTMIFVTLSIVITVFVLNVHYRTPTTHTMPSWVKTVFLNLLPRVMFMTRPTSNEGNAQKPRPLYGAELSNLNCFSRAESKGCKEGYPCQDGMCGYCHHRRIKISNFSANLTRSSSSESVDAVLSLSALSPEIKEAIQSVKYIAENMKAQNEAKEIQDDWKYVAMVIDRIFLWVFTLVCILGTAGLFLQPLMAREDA
Sequence of α3β2 nicotinic receptor (P17787 26-502): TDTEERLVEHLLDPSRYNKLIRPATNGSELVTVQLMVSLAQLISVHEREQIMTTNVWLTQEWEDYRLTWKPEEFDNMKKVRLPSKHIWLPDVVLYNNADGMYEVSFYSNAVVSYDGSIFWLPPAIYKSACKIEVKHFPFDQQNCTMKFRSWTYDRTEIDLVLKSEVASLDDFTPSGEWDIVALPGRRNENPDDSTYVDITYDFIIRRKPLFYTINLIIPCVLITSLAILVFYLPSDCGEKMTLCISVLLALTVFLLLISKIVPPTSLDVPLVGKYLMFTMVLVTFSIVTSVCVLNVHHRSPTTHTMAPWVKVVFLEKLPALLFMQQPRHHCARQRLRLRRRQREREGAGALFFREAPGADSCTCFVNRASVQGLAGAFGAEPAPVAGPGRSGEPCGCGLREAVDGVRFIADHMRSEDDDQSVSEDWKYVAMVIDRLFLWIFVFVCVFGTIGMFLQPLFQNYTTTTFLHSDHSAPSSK
Sequence of α3β4 nicotinic receptor (P32297 32-505): as the sequence (P32297 32-505) above
Sequence of α3β4 nicotinic receptor (P30926 22-498): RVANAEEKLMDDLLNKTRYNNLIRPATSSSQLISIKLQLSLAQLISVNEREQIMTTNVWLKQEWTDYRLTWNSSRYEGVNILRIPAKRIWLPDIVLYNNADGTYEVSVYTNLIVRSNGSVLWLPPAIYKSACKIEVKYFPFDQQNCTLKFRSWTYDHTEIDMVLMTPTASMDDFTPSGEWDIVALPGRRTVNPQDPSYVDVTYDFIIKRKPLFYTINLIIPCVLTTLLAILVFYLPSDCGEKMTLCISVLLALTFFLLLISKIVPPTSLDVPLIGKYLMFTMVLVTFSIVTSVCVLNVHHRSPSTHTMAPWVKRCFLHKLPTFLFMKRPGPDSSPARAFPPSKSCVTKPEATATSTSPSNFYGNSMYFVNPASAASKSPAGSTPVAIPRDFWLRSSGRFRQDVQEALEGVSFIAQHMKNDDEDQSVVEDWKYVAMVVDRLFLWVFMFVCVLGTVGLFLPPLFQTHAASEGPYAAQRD

Structure (SMILES): CN1CCCC1c1cccnc1 (centres unmarked) [nicotine]
- time on receptor column (α3β2 nicotinic receptor): 2.25 min
- time on receptor column (α3β4 nicotinic receptor): 0.98 min
